The values below come from ChEMBL document CHEMBL6071177, “Medium-Ring Keto Bislactams with Antischistosomal Activity” (J Med Chem, 2024).

A short description of data set [1]: Lipophilicity, logD of compound at pH 7.4 by HPLC analysis. Type of data set: physicochemical. Particulars: buffer.
A short description of data set [2]: Solubility of compound in 0.01 M HCl at pH 2.0 by nephelometry. Type of data set: physicochemical.
A short description of data set [3]: Solubility of compound in phosphate buffer at pH 6.5 by nephelometry. The class given is physicochemical.
The nature of data set [4]: Intrinsic clearance in human liver microsomes. In general terms: Microsomes from liver hold many membrane-bound enzymes, among them those of drug oxidation.
Data set [5] in a line: Intrinsic clearance in mouse liver microsomes.
In data set [6] the test system is Schistosoma mansoni. Kind of data set: Anti-schistosomal activity against newly transformed Schistosoma mansoni assessed as parasite viability at 10 uM measured after 3 days relative to control. The class given is functional. Particulars: time 3 day.
Data set [7] deals with Schistosoma mansoni. The data set can be described thus: Anti-schistosomal activity against adult Schistosoma mansoni assessed as parasite viability at 10 uM measured after 3 days relative to control. Type of data set: functional. Particulars: time 3 day.
A short description of data set [8]: Cytotoxicity against rat L6 cells. Type of data set: toxicity, cell-based.
Data set [9] can be described thus: Half life in Swiss mouse at 100 mg/kg, po measured upto 48 hrs by LC-MS analysis. Type of data set: ADME, organism-based. The following applies: in vivo.
A short description of data set [10]: AUC (0 to 24 hrs) in Swiss mouse at 100 mg/kg, po measured upto 48 hrs by LC-MS analysis. Type of data set: ADME, organism-based. Particulars: in vivo.
Data set [11] in a line: Cmax in Swiss mouse at 100 mg/kg, po measured upto 48 hrs by LC-MS analysis. Type of data set: ADME, organism-based. The following applies: in vivo.
Data set [12] relates to Schistosoma mansoni. Kind of data set: Ex vivo anti-schistosomal activity against adult Schistosoma mansoni assessed as inhibition of parasite viability measured after 3 days. Type of data set: functional, organism-based. Particulars: 72 h.

For orientation: logD means the decadic logarithm of the distribution of all forms, ionised or not, between an organic phase and buffer at a given pH. One may read the solubility (kinetic) as the concentration staying in solution when a stock, usually in DMSO, is diluted into the medium. By pIC50 is commonly meant −log10 of the IC50, conventionally taken in molar units. Broadly, the AUC is the area under the concentration-time curve, a measure of exposure. Low values mean less exposure, high ones more exposure. A word on the Cmax: it is the maximum level reached in the sampled fluid or tissue.

pIC50: −log10 of the molar value. Values after ≈ are worked out from the molar mass of the structure shown.

In data set [1], `O=C1CCN2C(=O)c3cc4ccccc4cc3C2C(=O)Nc2ccccc21` (stereo not given) had a logD of 2.3. In addition, the kinetic solubility in [2] and in data set [3] was above 320 µM in each case. Also, the CLH in data set [4] is 97.4 µL/min/mg; in [5] it was 212 µL/min/mg. Also, the Activity in data set [6] was 48%; in [7], 40%. Besides, the pIC50 in [8] was 4.01.
In [1], `O=C1CCN2C(=O)c3ccccc3C2C(=O)Nc2ccccc21` (stereo not given) showed a logD of 1.2. For the same compound, the solubility (kinetic) in [2] is 160 µM (≈ 49 µg/mL); in data set [3], above 320 µM. Besides, the CLH was 27 µL/min/mg in data set [4] and 84 µL/min/mg in data set [5]. For the same compound, the Activity in data set [6] turned out to be 51%; in [7], 61%. The pIC50 was below 3.48 in data set [8] and 5.60 in data set [12]. This compound also returned a t1/2 in data set [9] of 4.4 h. In data set [10], this compound came in with an AUC of 810 ng·h/mL. This compound also displayed a Cmax in [11] of 189 ng/mL.
